Test results as given in paper PMC7158045 (BMC Plant Biology, 2020).
Where a name gives a salt, the structure may show the parent alone.

Legend:
Test in all cases: biochemical
ZmDRIK1-R187-P492 = target: T1, ZmDRIK1-R187-P492 (Zea mays, UniProt C0P4K9); details: read-out: dTm B, DSF, Boltzmann fit, 0.1% DMSO
T1 construct: kinase domain, R187-P492
T1 sequence (C0P4K9 1-514): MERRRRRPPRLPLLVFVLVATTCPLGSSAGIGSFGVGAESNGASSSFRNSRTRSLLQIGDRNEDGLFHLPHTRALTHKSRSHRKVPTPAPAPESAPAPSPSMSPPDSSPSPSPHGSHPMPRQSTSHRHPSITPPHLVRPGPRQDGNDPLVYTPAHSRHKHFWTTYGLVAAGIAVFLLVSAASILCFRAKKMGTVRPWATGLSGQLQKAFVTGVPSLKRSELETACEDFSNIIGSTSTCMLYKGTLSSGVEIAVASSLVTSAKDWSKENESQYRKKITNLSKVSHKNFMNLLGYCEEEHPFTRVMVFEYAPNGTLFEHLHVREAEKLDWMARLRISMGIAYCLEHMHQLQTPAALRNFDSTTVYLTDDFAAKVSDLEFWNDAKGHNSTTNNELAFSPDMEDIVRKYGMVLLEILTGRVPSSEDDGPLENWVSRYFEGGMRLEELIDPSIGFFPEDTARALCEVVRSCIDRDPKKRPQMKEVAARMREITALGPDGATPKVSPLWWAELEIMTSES

[1] = target: T2, ZmDRIK1 (DROUGHT RESPONSIVE INACTIVE KINASE 1), kinase domain (Zea mays, UniProt C0P4K9); details: read-out: dTm B, sheet ZmDRIK1-R187-S514;; DSF, Boltzmann fit, 0.1% DMSO
T2 construct: gene ZEAMMB73_Zm00001d028770; ZmDRIK1-KD R187-S514 (kinase domain)
T2 sequence (C0P4K9 187-514): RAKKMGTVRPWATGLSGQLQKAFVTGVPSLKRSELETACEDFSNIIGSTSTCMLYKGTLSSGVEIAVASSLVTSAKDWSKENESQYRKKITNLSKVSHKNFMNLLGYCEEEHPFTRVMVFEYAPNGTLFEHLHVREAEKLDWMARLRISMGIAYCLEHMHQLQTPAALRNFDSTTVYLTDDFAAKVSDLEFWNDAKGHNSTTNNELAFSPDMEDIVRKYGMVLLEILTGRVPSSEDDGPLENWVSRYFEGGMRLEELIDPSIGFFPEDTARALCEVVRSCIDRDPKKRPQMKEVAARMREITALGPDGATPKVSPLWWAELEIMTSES

ZmDRIK1-K217-S514 = target: T3, ZmDRIK1-K217-S514 (Zea mays, UniProt C0P4K9); details: read-out: dTm B, sheet ZmDRIK1-K217-S514;; DSF, Boltzmann fit, 0.1% DMSO
T3 construct: kinase domain, K217-S514
T3 sequence (C0P4K9 1-514): T1 sequence (C0P4K9 1-514)

ZmDRIK1-K217-P492 = target: T4, ZmDRIK1-K217-P492 (Zea mays, UniProt C0P4K9); details: read-out: dTm B, sheet ZmDRIK1-K217-P492;; DSF, Boltzmann fit, 0.1% DMSO
T4 construct: kinase domain, K217-P492
T4 sequence (C0P4K9 1-514): T1 sequence (C0P4K9 1-514)

Row | Structure (SMILES) | ΔTm at 10 µM (ZmDRIK1-R187-P492) [°C] | ΔTm at 10 µM [1] [°C] | ΔTm at 10 µM (ZmDRIK1-K217-S514) [°C] | ΔTm at 10 µM (ZmDRIK1-K217-P492) [°C]
1 | Cc1cc2c(F)c(Oc3ncnn4cc(OC[C@@H](C)O)c(C)c34)ccc2[nH]1 [Brivanib (BMS-540215)] | -0.365 | -1.28 | -0.0833 | -0.796
2 | CCS(=O)(=O)c1cccc(-c2cc(C(=O)NC3CCN(C)CC3)c(C)c3[nH]c4ncc(C)cc4c23)c1 [TAK-901] | -0.0329 | -0.544 | -0.0934 | -0.353
3 | CC(=O)c1c(C)c2cnc(Nc3ccc(N4CCNCC4)cn3)nc2n(C2CCCC2)c1=O [Palbociclib (PD-0332991) HCl] | -0.154 | -0.906 | -0.31 | -0.775
4 | COc1cc2nccc(Oc3ccc(NC(=O)Nc4cc(C)on4)c(Cl)c3)c2cc1OC [Tivozanib (AV-951)] | -3.15 | -0.0903 | -0.402 | -3.26
5 | FC(F)c1nc2ccccc2n1-c1nc(N2CCOCC2)nc(N2CCOCC2)n1 [ZSTK474] | -0.113 | -1.02 | -0.199 | -0.762
6 | COc1cc2/c(=N/c3ccc(Br)cc3F)nc[nH]c2cc1OCC1CCN(C)CC1 [Vandetanib (ZD6474)] | -0.154 | -0.824 | -0.239 | -0.91
7 | CC(C)CCN1c2nc(Nc3cc(F)c(O)c(F)c3)ncc2N(C)C(=O)C1C (stereo not drawn) [BI-D1870] | -0.479 | -0.701 | -0.612 | -1.48
8 | Cc1ccc2nc(NCCN)c3ncc(C)n3c2c1 [BMS-345541] | -0.153 | -0.926 | -0.486 | -0.0998
9 | CN1CC[C@H](c2c(O)cc(O)c3c(=O)cc(-c4ccccc4Cl)oc23)[C@H](O)C1 [Flavopiridol HCl] | -0.272 | -0.837 | -0.391 | -1.16
10 | Cc1cc(NC(=O)c2cccc(NC(=O)/C=C/CN(C)C)c2)ccc1Nc1nccc(-c2cccnc2)n1 [JNK-IN-8] | -0.326 | -0.726 | -0.306 | -1.16
11 | Cc1csc(-c2nnc(Nc3ccc(Oc4ncccc4-c4ccnc(N)n4)cc3)c3ccccc23)c1 [AMG-900] | -0.572 | -6.12 | -2.33 | -3.86
12 | Cc1cc(CN2CCN(c3c(Br)cnc4nc(-c5ccc(N6CCN(C)CC6)cc5)[nH]c34)CC2)no1 [CCT137690] | -0.157 | -1.09 | -0.286 | -0.814
13 | CN1CCN(c2cccc(Nc3nc4c(-c5ccc(S(C)(=O)=O)cc5)cccn4n3)c2)CC1 [CEP-33779] | -0.284 | -0.54 | -0.33 | -0.95
14 | CS(=O)(=O)N1CCN(Cc2cc3nc(-c4cccc5[nH]ncc45)nc(N4CCOCC4)c3s2)CC1 [GDC-0941] | -0.181 | -0.702 | -0.203 | -0.665
15 | C=CCc1ccc(O)c(-c2ccc(O)c(CC=C)c2)c1 [Honokiol] | -0.457 | -0.751 | -0.593 | -1.49
16 | O=C(O)[C@]1(Cc2cccc(Nc3nccs3)n2)CC[C@@H](Oc2cccc(Cl)c2F)CC1 [MK-5108 (VX-689)] | -0.282 | -1.14 | -0.299 | -0.754
17 | O=c1cc(-c2cccc3c2Sc2ccccc2S3)oc(N2CCOCC2)c1 [KU-55933 (ATM Kinase Inhibitor)] | -0.282 | -0.601 | -0.342 | -1.32
18 | N#Cc1c(Oc2ccc(F)c(NC(=O)Cc3cccc(C(F)(F)F)c3)c2)ccc2nc(NC(=O)C3CC3)sc12 [TAK-632] | -0.521 | 1.64 | -2.01 | 3.91

Row | Structure (SMILES) | ΔTm at 10 µM (ZmDRIK1-R187-P492) [°C] | ΔTm at 10 µM [1] [°C] | ΔTm at 10 µM (ZmDRIK1-K217-S514) [°C] | ΔTm at 10 µM (ZmDRIK1-K217-P492) [°C]
19 | O=C(NC(NC(=S)Nc1ccc(F)c([N+](=O)[O-])c1)C(Cl)(Cl)Cl)C(c1ccccc1)c1ccccc1 (stereo not drawn) [CGK 733] | 0.467 | 0.221 | 0.146 | -1.46
20 | COc1ccc(Cl)cc1NC(=O)Nc1cc(C)nc2ccccc12 [PQ 401] | -0.365 | -1.59 | -0.394 | -0.962
21 | CCCNC(=O)Nc1ccc(Oc2ncnc3cc(OC)c(OC)cc23)cc1Cl [KRN 633] | -0.332 | -1.02 | -0.102 | -0.52
22 | Cc1[nH]c2ccccc2c1C1=C(NCCc2ccc(F)cc2)C(=O)N(C)C1=O [IM-12] | -0.527 | -0.881 | -0.628 | -1.43
23 | Oc1ccc(-c2nc(-c3ccc(F)cc3)c(-c3ccncc3)[nH]2)cc1 [SB202190 (FHPI)] | -18.3 | 0.194 | 2.58 | 1.22
24 | O=C1NC(=O)C(=Cc2ccc(-c3ccc(F)cc3)o2)S1 (stereo in doubt) [CAY10505] | -0.47 | -0.534 | -0.62 | -0.834
25 | CCn1c(-c2nonc2N)nc2c(C#CC(C)(C)O)ncc(OC[C@H]3CCCNC3)c21 [GSK690693] | -0.153 | -0.678 | -0.204 | -1.08
26 | C1=N/C2=N/c3ccc(OCCN4CCCC4)c(c3)COC/C=C/COCc3cccc(c3)C(=C1)N2 [Pacritinib (SB1518)] | -0.0853 | 0.0273 | 0.03 | 1.04
27 | COc1cc2ncnc(Nc3cccc(Cl)c3)c2cc1OC [AG-1478 (Tyrphostin AG-1478)] | -0.424 | -0.676 | -0.388 | -0.243
28 | OCCn1cc(-c2ccc3c(c2)CC/C3=N\O)c(-c2ccncc2)n1 [GDC-0879] | -0.0449 | -0.639 | -0.397 | -1.04
29 | C[C@@H](Oc1cc(-n2cnc3ccc(CN4CCN(C)CC4)cc32)sc1C(N)=O)c1ccccc1C(F)(F)F [GSK461364] | -0.19 | -1.05 | -0.15 | -0.796
30 | CSc1cccc(Nc2ncc3cc(-c4c(Cl)cccc4Cl)c(=O)n(C)c3n2)c1 [PD173955] | -0.72 | -1.36 | -0.595 | -2.14
31 | Cc1cc(C(=O)NOCCO)c(Nc2ccc(I)cc2F)n(C)c1=O [AZD8330] | -0.162 | -0.935 | -0.42 | -0.83
32 | Cc1cn(-c2cc(NC(=O)c3ccc(C)c(Nc4nccc(-c5cccnc5)n4)c3)cc(C(F)(F)F)c2)cn1 [Nilotinib (AMN-107)] | -5.14 | -19.8 | -2.84 | -9.25
33 | CO[C@H]1C[C@@H]2CC[C@@H](C)[C@@](O)(O2)C(=O)C(=O)N2CCCC[C@H]2C(=O)O[C@H]([C@H](C)C[C@@H]2CC[C@@H](OCCO)[C@H](OC)C2)CC(=O)[C@H](C)/C=C(\C)[C@@H](O)[C@@H](OC)C(=O)[C@H](C)C[C@H](C)/C=C/C=C/C=C/1C [Everolimus (RAD001)] | -0.526 | -0.644 | -0.327 | -1.22
34 | C=CC(=O)Nc1cccc(Nc2nc(Nc3ccc(NC4CN(CCF)C4)cc3OC)ncc2C(F)(F)F)c1 [CNX-2006] | -0.528 | -0.903 | -0.646 | -1.15
35 | CC1(C)CNc2cc(NC(=O)c3cccnc3NCc3ccncc3)ccc21 [Motesanib Diphosphate (AMG-706)] | -0.24 | -0.808 | -0.221 | -1.01
36 | C[C@H](Nc1ncnc2nc[nH]c12)c1cc2cccc(Cl)c2c(=O)n1-c1ccccc1 [IPI-145 (INK1197)] | -0.495 | -1.16 | -0.374 | -0.86
